Measurements taken from ChEMBL document CHEMBL4138149, “Discovery of 1-(3-aryl-4-chlorophenyl)-3-(p-aryl)urea derivatives against breast cancer by inhibiting PI3K/Akt/mTOR and Hedgehog signalings” (Eur J Med Chem, 2017).
Each block holds one compound with its values, some of them ahead of it. Active and inactive are the calls of the source. The rule behind the calls is not given here.

Columns and labels:
T47D [1] = experiment: Cytotoxicity against human T47D cells after 72 hrs by MTT assay; assay type: functional, cell-based
MCF7 = experiment: Cytotoxicity against human MCF7 cells after 72 hrs by MTT assay; assay type: functional, cell-based; settings: MCF7, 72 h
PC-3 = experiment: Cytotoxicity against human PC3 cells after 72 hrs by MTT assay; assay type: functional, cell-based; settings: PC-3, 72 h
[2] = molecular target: Serine/threonine-protein kinase mTOR (Homo sapiens, UniProt P42345); experiment: Inhibition of mTOR (unknown origin) using Ulight-4EBP1 peptide as substrate measured after 1 hr by Lance Ultra assay
MDA-MB-231 [3] = experiment: cells; settings: Homo sapiens, MDA-MB-231, 72 h
Description: Cytotoxicity against human MDA-MB-231 cells after 72 hrs by MTT assay

[4] = molecular target: Phosphatidylinositol 4,5-bisphosphate 3-kinase catalytic subunit alpha isoform (Homo sapiens) (UniProt P42336); experiment: Inhibition of PI3Kalpha (unknown origin) at 50 uM using PIP2 as substrate measured after 1 hr by Kinase-Glo luminescent assay relative to control
[5] = molecular target: Phosphatidylinositol 4,5-bisphosphate 3-kinase catalytic subunit alpha isoform (Homo sapiens) (UniProt P42336); experiment: Inhibition of PI3Kalpha (unknown origin) at 5 uM using PIP2 as substrate measured after 1 hr by Kinase-Glo luminescent assay relative to control
MDA-MB-231 [6] = experiment: Induction of apoptosis in human MDA-MB-231 cells assessed as early apoptotic cells at 10 uM after 48 hrs by Annexin-V-FITC/propidium iodide staining based flow cytometric method (reference value: 0.634%); assay type: functional
T47D [7] = experiment: Induction of apoptosis in human T47D cells assessed as necrotic cells at 10 uM after 48 hrs by Annexin-V-FITC/propidium iodide staining based flow cytometric method (reference value: 0.135%); assay type: functional
T47D [8] = experiment: Induction of apoptosis in human T47D cells assessed as live cells at 5 uM after 48 hrs by Annexin-V-FITC/propidium iodide staining based flow cytometric method (reference value: 86.2%); assay type: functional
T47D [9] = experiment: Induction of apoptosis in human T47D cells assessed as late apoptotic cells at 5 uM after 48 hrs by Annexin-V-FITC/propidium iodide staining based flow cytometric method (reference value: 9.18%); assay type: functional
MDA-MB-231 [10] = experiment: Induction of apoptosis in human MDA-MB-231 cells assessed as late apoptotic cells at 10 uM after 48 hrs by Annexin-V-FITC/propidium iodide staining based flow cytometric method (reference value: 5%); assay type: functional
MDA-MB-231 [11] = experiment: Inhibition of Hedgehog signaling in human MDA-MB-231 cells assessed as reduction in SAG-induced elevation of Gli1 expression at 5 to 10 uM after 48 hrs by Western blot analysis; assay type: cell-based
T47D [12] = experiment: Induction of apoptosis in human T47D cells assessed as live cells at 10 uM after 48 hrs by Annexin-V-FITC/propidium iodide staining based flow cytometric method (reference value: 86.2%); assay type: functional
MDA-MB-231 [13] = experiment: Induction of apoptosis in human MDA-MB-231 cells assessed as live cells at 5 uM after 48 hrs by Annexin-V-FITC/propidium iodide staining based flow cytometric method (reference value: 94.3%); assay type: functional
MDA-MB-231 [14] = experiment: Inhibition of PI3K/Akt/mTOR signaling in human MDA-MB-231 cells assessed as reduction in AKT phosphorylation at Ser473 residue at 5 uM by Western blot analysis; assay type: cell-based; settings: TDE = time-dependent effect
MDA-MB-231 [15] = experiment: Induction of apoptosis in human MDA-MB-231 cells assessed as live cells at 10 uM after 48 hrs by Annexin-V-FITC/propidium iodide staining based flow cytometric method (reference value: 94.3%); assay type: functional
T47D [16] = experiment: Induction of apoptosis in human T47D cells assessed as necrotic cells at 5 uM after 48 hrs by Annexin-V-FITC/propidium iodide staining based flow cytometric method (reference value: 0.135%); assay type: functional
MDA-MB-231 [17] = experiment: Induction of apoptosis in human MDA-MB-231 cells assessed as necrotic cells at 10 uM after 48 hrs by Annexin-V-FITC/propidium iodide staining based flow cytometric method (reference value: 0.086%); assay type: functional
MDA-MB-231 [18] = experiment: Inhibition of PI3K/Akt/mTOR signaling in human MDA-MB-231 cells assessed as reduction in phosphorylation of S6K at Thr412 residue at 5 uM measured within 4 hrs by Western blot analysis; assay type: cell-based
MDA-MB-231 [19] = experiment: Induction of apoptosis in human MDA-MB-231 cells assessed as late apoptotic cells at 5 uM after 48 hrs by Annexin-V-FITC/propidium iodide staining based flow cytometric method (reference value: 5%); assay type: functional
MDA-MB-231 [20] = experiment: Antimigratory activity against human MDA-MB-231 cells at 5 to 10 uM after 24 hrs by tryphan blue staining based transwell assay; assay type: functional, cell-based
MDA-MB-231 [21] = experiment: Induction of apoptosis in human MDA-MB-231 cells assessed as early apoptotic cells at 5 uM after 48 hrs by Annexin-V-FITC/propidium iodide staining based flow cytometric method (reference value: 0.634%); assay type: functional
T47D [22] = experiment: Induction of apoptosis in human T47D cells assessed as late apoptotic cells at 10 uM after 48 hrs by Annexin-V-FITC/propidium iodide staining based flow cytometric method (reference value: 9.18%); assay type: functional
T47D [23] = experiment: Induction of apoptosis in human T47D cells assessed as early apoptotic cells at 5 uM after 48 hrs by Annexin-V-FITC/propidium iodide staining based flow cytometric method (reference value: 4.49%); assay type: functional
MDA-MB-231 [24] = experiment: Induction of apoptosis in human MDA-MB-231 cells assessed as necrotic cells at 5 uM after 48 hrs by Annexin-V-FITC/propidium iodide staining based flow cytometric method (reference value: 0.086%); assay type: functional
MDA-MB-231 [25] = experiment: Inhibition of PI3K/Akt/mTOR signaling in human MDA-MB-231 cells assessed as reduction in phosphorylation of S6K at Thr389 residue at 5 uM measured within 4 hrs by Western blot analysis; assay type: cell-based
T47D [26] = experiment: Induction of apoptosis in human T47D cells assessed as early apoptotic cells at 10 uM after 48 hrs by Annexin-V-FITC/propidium iodide staining based flow cytometric method (reference value: 4.49%); assay type: functional

Chain of Phosphatidylinositol 4,5-bisphosphate 3-kinase catalytic subunit alpha isoform (Homo sapiens) (P42336 whole entry, canonical isoform): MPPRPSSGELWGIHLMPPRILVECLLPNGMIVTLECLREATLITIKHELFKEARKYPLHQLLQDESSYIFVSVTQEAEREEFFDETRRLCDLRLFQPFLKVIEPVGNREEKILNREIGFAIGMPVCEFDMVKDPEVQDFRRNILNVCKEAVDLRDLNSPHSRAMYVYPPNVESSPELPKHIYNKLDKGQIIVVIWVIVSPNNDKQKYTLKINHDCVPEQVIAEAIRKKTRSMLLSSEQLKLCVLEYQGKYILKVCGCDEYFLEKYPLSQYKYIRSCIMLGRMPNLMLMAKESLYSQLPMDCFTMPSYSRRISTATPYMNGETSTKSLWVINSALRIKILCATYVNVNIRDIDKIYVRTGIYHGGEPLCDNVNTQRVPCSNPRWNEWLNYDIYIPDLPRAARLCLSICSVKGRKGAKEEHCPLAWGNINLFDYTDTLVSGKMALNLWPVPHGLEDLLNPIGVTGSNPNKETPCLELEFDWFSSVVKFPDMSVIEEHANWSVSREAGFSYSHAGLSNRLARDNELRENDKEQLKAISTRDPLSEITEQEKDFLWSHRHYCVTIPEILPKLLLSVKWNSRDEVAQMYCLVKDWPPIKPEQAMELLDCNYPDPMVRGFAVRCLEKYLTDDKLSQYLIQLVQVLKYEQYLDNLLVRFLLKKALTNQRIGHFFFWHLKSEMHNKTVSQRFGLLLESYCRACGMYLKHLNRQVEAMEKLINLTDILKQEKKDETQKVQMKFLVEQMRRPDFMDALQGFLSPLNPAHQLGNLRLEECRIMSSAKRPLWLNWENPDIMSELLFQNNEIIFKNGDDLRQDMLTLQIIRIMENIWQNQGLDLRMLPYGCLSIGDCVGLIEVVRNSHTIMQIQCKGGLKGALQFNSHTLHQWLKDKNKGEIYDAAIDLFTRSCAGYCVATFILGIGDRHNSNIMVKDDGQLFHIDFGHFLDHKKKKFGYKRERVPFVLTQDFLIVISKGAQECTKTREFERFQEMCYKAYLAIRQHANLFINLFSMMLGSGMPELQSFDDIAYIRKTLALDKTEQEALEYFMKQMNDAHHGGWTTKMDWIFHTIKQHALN

SMILES: CS(=O)(=O)c1ccc(C(=O)Nc2ccc(-c3nc(N4CCOCC4)nc(N4CCOCC4)n3)cc2)c(Cl)c1
- IC50 (T47D [1]): 17.5 µM

SMILES: O=C(Nc1ccc(-c2nc(N3CCOCC3)nc(N3CCOCC3)n2)cc1)Nc1ccc(Cl)c(-c2cccs2)c1
- IC50 (T47D [1]): 44.1 µM

- IC50 [2]: > 10 µM
- IC50 (MDA-MB-231 [3]): 14.5 µM
- inhibition [4]: 30%
SMILES: O=C(Nc1ccc(-c2ccnc(N3CCOCC3)n2)cc1)Nc1ccc(Cl)c(-c2cccnc2)c1
- IC50 (MCF7): 16.8 µM
- IC50 (PC-3): 11.8 µM
- IC50 (T47D [1]): 4.11 µM

- inhibition [5]: 57.1%
- IC50 [2]: 3.45 µM
SMILES: O=C(Nc1ccc(-c2nc(N3CCOCC3)nc(N3CCOCC3)n2)cc1)Nc1ccc(Cl)c(-c2ccccc2)c1
- IC50 (T47D [1]): 15.4 µM

- inhibition [5]: 9.37%
- IC50 [2]: 0.26 µM
- IC50 (MDA-MB-231 [3]): 7.32 µM
SMILES: O=C(Nc1ccc(-c2cc(N3CCOCC3)nc(N3CCOCC3)n2)cc1)Nc1ccc(Cl)c(-c2ccncc2)c1
- IC50 (MCF7): 8.2 µM
- IC50 (PC-3): 9.28 µM
- IC50 (T47D [1]): 7.41 µM

SMILES: O=C(Nc1ccc(-c2ccnc(N3CCOCC3)n2)cc1)Nc1ccc(Cl)c(-c2ccccn2)c1
- IC50 (T47D [1]): 23.1 µM

- inhibition [5]: 26.6%
- IC50 [2]: 0.2 µM
- IC50 (MDA-MB-231 [3]): 7.82 µM
SMILES: O=C(Nc1ccc(-c2nc(N3CCOCC3)nc(N3CCOCC3)n2)cc1)Nc1ccc(Cl)c(-c2cccnc2)c1
- IC50 (MCF7): 5.75 µM
- IC50 (PC-3): 5.37 µM
- IC50 (T47D [1]): 9.38 µM

- inhibition [5]: 35.1%
- IC50 [2]: 0.33 µM
- IC50 (MDA-MB-231 [3]): 8.49 µM
SMILES: O=C(Nc1ccc(-c2cc(N3CCOCC3)nc(N3CCOCC3)n2)cc1)Nc1ccc(Cl)c(-c2cccnc2)c1
- IC50 (MCF7): 9.15 µM
- IC50 (PC-3): 15.5 µM
- IC50 (T47D [1]): 3.96 µM

SMILES: O=C(Nc1ccc(-c2ccnc(N3CCOCC3)n2)cc1)Nc1ccc(Cl)c(-c2ccccc2)c1
- IC50 (T47D [1]): 44.6 µM

SMILES: CS(=O)(=O)c1ccc(C(=O)Nc2ccc(-c3cc(N4CCOCC4)nc(N4CCOCC4)n3)cc2)c(Cl)c1
- IC50 (T47D [1]): 22.3 µM

SMILES: O=C(Nc1ccc(-c2cc(N3CCOCC3)nc(N3CCOCC3)n2)cc1)Nc1ccc(Cl)c(-c2ccccn2)c1
- IC50 (T47D [1]): 35.1 µM

- inhibition [5]: 16.3%
- IC50 [2]: 0.18 µM
- IC50 (MDA-MB-231 [3]): 3.61 µM
SMILES: O=C(Nc1ccc(-c2nc(N3CCOCC3)nc(N3CCOCC3)n2)cc1)Nc1ccc(Cl)c(-c2ccncc2)c1
- Activity (MDA-MB-231 [6]): 42.5%
- Activity (T47D [7]): 0.347%
- IC50 (MCF7): 7.61 µM
- Activity (T47D [8]): 80.8%
- IC50 (PC-3): 11 µM
- Activity (T47D [9]): 10.5%
- Activity (MDA-MB-231 [10]): 49.9%
- inhibition (MDA-MB-231 [11]): Active
- Activity (T47D [12]): 13.9%
- Activity (MDA-MB-231 [13]): 51.6%
- inhibition (MDA-MB-231 [14]): Tde
- Activity (MDA-MB-231 [15]): 7.01%
- Activity (T47D [16]): 0.132%
- Activity (MDA-MB-231 [17]): 0.595%
- inhibition (MDA-MB-231 [18]): Active
- Activity (MDA-MB-231 [19]): 28.6%
- Activity (MDA-MB-231 [20]): Active
- Activity (MDA-MB-231 [21]): 18.7%
- Activity (T47D [22]): 10.6%
- Activity (T47D [23]): 8.49%
- Activity (MDA-MB-231 [24]): 1.17%
- inhibition (MDA-MB-231 [25]): Active
- Activity (T47D [26]): 75.1%
- IC50 (T47D [1]): 7.94 µM

SMILES: O=C(Nc1ccc(-c2ccnc(N3CCOCC3)n2)cc1)Nc1ccc(Cl)c(-c2ccsc2)c1
- IC50 (T47D [1]): 22.6 µM

SMILES: O=C(Nc1ccc(-c2cc(N3CCOCC3)nc(N3CCOCC3)n2)cc1)Nc1ccc(Cl)c(-c2ccccc2)c1
- IC50 (T47D [1]): 15.6 µM

SMILES: O=C(Nc1ccc(-c2cc(N3CCOCC3)nc(N3CCOCC3)n2)cc1)Nc1ccc(Cl)c(-c2ccsc2)c1
- IC50 (T47D [1]): 18.7 µM

SMILES: O=C(Nc1ccc(-c2ccnc(N3CCOCC3)n2)cc1)Nc1ccc(Cl)c(-c2cccs2)c1
- IC50 (T47D [1]): 24.3 µM

- IC50 (MDA-MB-231 [3]): > 50 µM
SMILES: CS(=O)(=O)c1ccc(C(=O)Nc2ccc(Cl)c(-c3ccccn3)c2)c(Cl)c1 [VISMODEGIB]
- IC50 (MCF7): > 50 µM
- IC50 (PC-3): > 50 µM
- IC50 (T47D [1]): 41.3 µM

- IC50 (MDA-MB-231 [3]): 18.9 µM
SMILES: O=C(Nc1ccc(-c2ccnc(N3CCOCC3)n2)cc1)Nc1ccc(Cl)c(-c2ccncc2)c1
- IC50 (MCF7): 19.2 µM
- IC50 (PC-3): 17.7 µM
- IC50 (T47D [1]): 16 µM

- inhibition [5]: 6.8%
- IC50 [2]: 0.09 µM
SMILES: O=C(Nc1ccc(-c2nc(N3CCOCC3)nc(N3CCOCC3)n2)cc1)Nc1ccc(Cl)c(-c2ccccn2)c1
- IC50 (T47D [1]): 14.2 µM

- IC50 (MDA-MB-231 [3]): 1.88 µM
SMILES: Nc1cc(C(F)(F)F)c(-c2cc(N3CCOCC3)nc(N3CCOCC3)n2)cn1 [BUPARLISIB]
- IC50 (MCF7): 11.1 µM
- IC50 (PC-3): 5.34 µM
- IC50 (T47D [1]): 6.92 µM

SMILES: O=C(Nc1ccc(-c2nc(N3CCOCC3)nc(N3CCOCC3)n2)cc1)Nc1ccc(Cl)c(-c2ccsc2)c1
- IC50 (T47D [1]): 23.2 µM

SMILES: O=C(Nc1ccc(-c2cc(N3CCOCC3)nc(N3CCOCC3)n2)cc1)Nc1ccc(Cl)c(-c2cccs2)c1
- IC50 (T47D [1]): 25.4 µM

SMILES: CS(=O)(=O)c1ccc(C(=O)Nc2ccc(-c3ccnc(N4CCOCC4)n3)cc2)c(Cl)c1
- IC50 (T47D [1]): 25 µM
